According to US20040023972A1, “Use of substituted imidazo[1,2-a]-pyridin-, -pyrimidin-and-pyrazin-3-yl-amine derivatives in the preparation of medicaments for inhibiting NOS” (Gruenenthal GmbH, priority 2000, published 2004):

Target: T1, NO synthase (Rattus norvegicus, UniProt P29476)
T1 construct: the supernatant was then removed by decantation and frozen in portions at −80° C; from tissue; host or cells: rat cerebellum, 20,000 g supernatant of homogenate
Assay: HTS-NOS assay (NOS assay): conversion of radioactive arginine, cation-exchanger filter plate
Format: biochemical
Settings: for inhibition at 10 µM: read-out: HTS-NOS assay: % inhibition (10 μM)
Summary of the method: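 Rat cerebellum supernatant as NOS source, incubated with radiolabelled arginine plus cofactors including NADPH at 25 °C for 5-60 min depending on enzyme activity. Unconverted arginine was trapped on a cation-exchange filter plate, citrulline washed out, and bound arginine counted by scintillation; % inhibition versus no-compound reactions.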

`Cc1cc(C)n2c(NC(C)(C)C)c(-c3cccc(O)c3)nc2c1` [Example 20, 3-(3-Tert-butylamino-5,7-dimethyl-imidazo[1,2-a]pyridin-2-yl)-phenol] gave an inhibition at 10 µM of 64%.

`Cc1cc(C)n2c(Nc3c(C)cccc3C)c(-c3ccccc3F)nc2c1` [Example 34] was tested, and the “HTS-NOS assay: % inhibition (10 μM)” value was 61%.

Work on `Cc1cc(C)n2c(NC(C)(C)CC(C)(C)C)c(-c3cccc(O)c3)nc2c1` [Example 31, 3-[5,7-Dimethyl-3-(1,1,3,3-tetramethyl-butylamino)-imidazo[1,2-a]pyridin-2-yl]-phenol] yielded an inhibition at 10 µM of 60%.

Work on `CCOc1ccc2ccccc2c1-c1nc2cc(C)ccn2c1N(C(C)=O)C(C)(C)C` [Example 290, N-tert-butyl-N-[2-(2-ethoxy-naphthalen-1-yl)-7-methyl-imidazo[1,2-a]pyridin-3-yl]-acetamide] yielded an inhibition at 10 µM of 67%.

Work on `Cc1cccn2c(NC(C)(C)CC(C)(C)C)c(-c3cccc(Cl)c3Cl)nc12` [Example 70, [2-(2,3-Dichlorophenyl)-8-methyl-imidazo[1,2-a]pyridin-3-yl]-(1,1,3,3-tetramethyl-butyl)-amine] yielded an inhibition at 10 µM of 52%.

For `CC(=O)N(c1c(C)nc2cc(C)cc(C)n12)C(C)(C)CC(C)(C)C` [Example 150, N-(1,1,3,3-tetramethyl-butyl)-N-(2,5,7-trimethyl-imidazo[1,2-a]pyridin-3-yl)-acetamide], the inhibition at 10 µM was 60%.

Work on `Cc1ccn2c(NC(C)(C)CC(C)(C)C)c(-c3ccncc3)nc2c1` [Example 29, (7-Methyl-2-pyridin-4-yl-imidazo[1,2-a]-pyridin-3-yl)-(1,1,3,3-tetramethyl-butyl)-amine] yielded an inhibition at 10 µM of 69%.

`CC(=O)N(c1c(-c2ccc(C)o2)nc2ccccn12)C(C)(C)C` [Example 220, N-tert-butyl-N-[2-(5-methyl-furan-2-yl)-imidazo[1,2-a]pyridin-3-yl]-acetamide] was tested, and the inhibition at 10 µM was 61%.

`CC(C)(C)Nc1c(-c2ccc(C(=O)O)s2)nc2cnccn12` [Example 119, 5-(3-Tert-butylamino-imidazo[1,2-a]pyrazin-2-yl)-thiophene-2-carboxylic acid] gave an inhibition at 10 µM of 56%.

Molecule `Cc1ccccc1-c1nc2c(C)cccn2c1Nc1c(C)cccc1C` [Example 130, (2,6-Dimethyl-phenyl)-(8-methyl-2-o-tolyl-imidazo[1,2-a]pyridin-3-yl)-amine] has an inhibition at 10 µM of 58%.

`Cc1cc(C)n2c(NC3CCCCC3)c(-c3ccco3)nc2c1` [Example 26, Cyclohexyl-(2-furan-2-yl-5,7-dimethyl-imidazo[1,2-a]pyridin-3-yl)-amine] was tested, and the inhibition at 10 µM was 62%.

For `COc1cc(-c2nc3c(C)cc(Br)cn3c2N(C(C)=O)c2c(C)cccc2C)ccc1OC(C)=O` [Example 213, acetic acid 4-{3-[acetyl-(2,6-dimethyl-phenyl)-amino]-6-bromo-8-methyl-imidazo[1,2-a]pyridin-2-yl}-2-methoxy-phenyl ester], the inhibition at 10 µM was 69%.

`CCCCN(C(C)=O)c1c(-c2cccc(OC)c2OC)nc2cc(C)ccn12` [Example 226, N-butyl-N-[2-(2,3-dimethoxy-phenyl)-7-methyl-imidazo[1,2-a]pyridin-3-yl]-acetamide] gave an inhibition at 10 µM of 62%.

In the case of `Cc1cc(C)n2c(Nc3c(C)cccc3C)c(-c3sccc3Br)nc2c1` [Example 42, [2-(3-Bromo-thiophen-2-yl)-5,7-dimethyl-imidazo[1,2-a]pyridin-3-yl]-(2,6-dimethyl-phenyl)-amine], the inhibition at 10 µM is reported as 55%.

Work on `CCCCN(C(C)=O)c1c(-c2ccc(C)cc2)nc2ccc(C)cn12` [Example 280, N-butyl-N-(6-methyl-2-p-tolyl-imidazo[1,2-a]pyridin-3-yl)-acetamide] yielded an inhibition at 10 µM of 53%.

`CCCc1cccc2nc(-c3ccco3)c(N(C(C)=O)C(C)(C)CC(C)(C)C)n12` [Example 228, N-(2-furan-2-yl-5-propyl-imidazo[1,2-a]pyridin-3-yl)-N-(1,1,3,3-tetramethylbutyl)-acetamide] showed an inhibition at 10 µM of 53%.

For `COc1ccccc1-c1nc2c(C)cccn2c1NC1CCCCC1` [Example 82, Cyclohexyl-[2-(2-methoxy-phenyl)-8-methyl-imidazo[1,2-a]pyridin-3-yl]-amine], the inhibition at 10 µM was 62%.

With `[C-]#[N+]CCCCCCNc1c(-c2cc3ccccc3c3ccccc23)nc2cc(C)ccn12` [Example 118, Methylidyne-[6-(7-methyl-2-phenanthren-9-yl-imidazo[1,2-a]pyridin-3-ylamino)-hexyl]-ammonium] the “HTS-NOS assay: % inhibition (10 μM)” value was 56%.

With `CCCCNc1c(-c2cccc(O)c2)nc2cc(C)ccn12` [Example 55, 3-(3-Butylamino-7-methyl-imidazo[1,2-a]-pyridin-2-yl)-phenol] the inhibition at 10 µM was 63%.

`Cc1cc(C)n2c(NC3CCCCC3)c(-c3ccccn3)nc2c1` [Example 114, Cyclohexyl-(5,7-dimethyt-2-pyridin-2-yl-imidazo[1,2-a]pyridin-3-yl)-amine] was tested, and the “HTS-NOS assay: % inhibition (10 μM)” value was 53%.

Work on `CC(=O)N(c1c(-c2ccc(C(=O)O)o2)nc2cc(C)cc(C)n12)C1CCCCC1` [Example 197, 5-[3-(acetyl-cyclohexyl-amino)-5,7-dimethyl-imidazo[1,2-a]pyridin-2-yl]-furan-2-carboxylic acid] yielded an inhibition at 10 µM of 70%.

With `COc1ccccc1-c1nc2cc(C)cc(C)n2c1NC(C)(C)CC(C)(C)C` [Example 53, [2-(2-Methoxy-phenyl)-5,7-dimethyl-imidazo[1,2-a]pyridin-3-yl]-(1,1,3,3-tetramethyl-butyl)-amine] the inhibition at 10 µM was 61%.

`Cc1ccn2c(NC(C)(C)CC(C)(C)C)c(-c3ccc(Br)o3)nc2c1` [Example 86, [2-(5-Bromofuran-2-yl)-7-methyl-imidazo[1,2-a]pyridin-3-yl]-(1,1,3,3-tetramethyl-butyl)-amine] was tested, and the inhibition at 10 µM was 54%.

Molecule `Cc1cc(C)n2c(NC(C)(C)CC(C)(C)C)c(-c3cc4ccccc4o3)nc2c1` [Example 66, (2-Benzofuran-2-yl-5,7-dimethyl-imidazo[1,2-a]pyridin-3-yl)-(1,1,3,3-tetramethyl-butyl)-amine] has an inhibition at 10 µM of 53%.

`COc1cccc(-c2nc3cc(C)cc(C)n3c2NC(C)(C)CC(C)(C)C)c1OC` [Example 108, (2-(2,3-Dimethoxy-phenyl)-5,7-dimethyl-imidazo[1,2-a]pyridin-3-yl]-(1,1,3,3-tetramethyl-butyl)-amine] was tested, and the inhibition at 10 µM was 73%.

With `C#[N+]CCCCCCN(C(C)=O)c1c(-c2ccc(C)cc2)nc2cc(C)ccn12` [Example 279, {6-[acetyl-(7-methyl-2-p-tolyl-imidazo[1,2-a]pyridin-3-yl)-amino]-hexyl}-methylidyne-ammonium] the “HTS-NOS assay: % inhibition (10 μM)” value was 71%.

Molecule `Cc1ccn2c(NC(C)(C)C)c(-c3cccnc3)nc2c1` [Example 1, Tert-butyl-(7-methyl-2-pyridin-3-yl-imidazo[1,2-a]pyridin-3-yl)-amine] has an inhibition at 10 µM of 63%.

With `Cc1ccn2c(NC(C)(C)CC(C)(C)C)c(-c3ccc(CO)o3)nc2c1` [Example 102, {5-[7-Methyl-3-(1,1,33-tetramethyl-butylamino)-imidazo[1,2-a]pyridin-2-yl]-furan-2-yl}-methanol] the “HTS-NOS assay: % inhibition (10 μM)” value was 59%.

`COc1cccc(-c2nc3cc(C)cc(C)n3c2Nc2c(C)cccc2C)c1OC` [Example 48, [2-(2,3-Dimethoxy-phenyl)-5,7-dimethyl-imidazo[1,2-a]pyridin-3-yl]-(2,6-dimethyl-phenyl)-amine] gave an inhibition at 10 µM of 68%.

For `CC(=O)N(c1c(-c2ccc(C(=O)O)s2)nc2cccc(C)n12)C(C)(C)C` [Example 183, 5-[3-(acetyl-tert-butyl-amino)-5-methyl-imidazo[1,2-a]pyridin-2-yl]-thiophene-2-carboxylic acid], the inhibition at 10 µM was 50%.

`Cc1ccn2c(NC(C)(C)C)c(-c3cccc4ccccc34)nc2c1` [Example 33, Tert-butyl-(7-methyl-2-naphthalen-1-yl-imidazo[1,2-a]pyridin-3-yl)-amine] gave an inhibition at 10 µM of 67%.

`CC(=O)N(c1c(-c2cc3ccccc3c3ccccc23)nc2cc(C)ccn12)C(C)(C)C` [Example 208, N-tert-butyl-N-(7-methyl-2-phenanthren-9-yl-imidazo[1,2-a]pyridin-3-yl)-acetamide] gave an inhibition at 10 µM of 63%.

In the case of `CCc1ccn2c(Nc3ccc(F)c(Cl)c3)c(-c3ccc(-c4cccc(Cl)c4)o3)nc2c1` [Example 320, (3-Chloro-4-fluorophenyl)-{2-[5-(3-chloro-phenyl)-furan-2-yl]-7-ethyl-imidazo[1,2-a]-pyridin-3-yl}-amine], the inhibition at 10 µM is reported as 52%.

`CC(=O)N(c1c(-c2ccc(C(=O)O)o2)nc2c(C)cccn12)C(C)(C)CC(C)(C)C` [Example 230, 5-{3-[acetyl-(1,1,3,3-tetramethyl-butyl)-amino]-8-methyl-imidazo[1,2-a]pyridin-2-yl}-furan-2-carboxylic acid] gave an inhibition at 10 µM of 52%.

With `COC(=O)CN(C(C)=O)c1c(C2CCCCC2)nc2cc(C)ccn12` [Example 257, [acetyl-(2-cyclohexyl-7-methyl-imidazo[1,2-a]pyridin-3-yl)-amino]-acetic acid methyl ester] the inhibition at 10 µM was 56%.

With `Cc1cc(C)n2c(NC(C)(C)C)c(C3CCCCC3)nc2c1` [Example 22, Tert-butyl-(2-cyclohexyl-5,7-dimethyl-imidazo[1,2-a]pyridin-3-yl)-amine] the inhibition at 10 µM was 68%.

`CC(=O)N(c1c(C)cccc1C)c1c(-c2ccc(Cl)cc2Cl)nc2ccccn12` [Example 247, N-[2-(2,4-dichloro-phenyl)-imidazo[1,2-a]pyridin-3-yl]-N-(2,6-dimethyl-phenyl)-acetamide] was tested, and the inhibition at 10 µM was 56%.

In the case of `CC(=O)N(c1c(-c2ccc([N+](=O)[O-])o2)nc2cc(C)ccn12)C1CCCCC1` [Example 178, N-cyclohexyl-N-[7-methyl-2-(5-nitro-furan-2-yl)-imidazo[1,2-a]pyridin-3-yl]-acetamide], the inhibition at 10 µM is reported as 64%.

In the case of `Cc1ccn2c(NC(C)(C)C)c(-c3cccc(O)c3)nc2c1` [Example 24, 3-(3-Tert-butylamino-7-methyl-imidazo[1,2-a]pyridin-2-yl)-phenol], the inhibition at 10 µM is reported as 59%.
